These results are taken from patent US20070190145A1, “DRUG DELIVERY SYSTEMS COMPRISING WEAKLY BASIC SELECTIVE SEROTONIN 5-HT3 BLOCKING AGENT AND ORGANIC ACIDS” (EURAND, INC., priority 2006, published 2007).

For orientation: solubility means the dissolved amount per volume that the medium holds. By AUC is commonly meant the area under the concentration-time curve, a measure of exposure. In general, Tmax refers to the time from dosing to the highest level.

≈ marks a conversion by molar mass, not a printed value. Where two headings read alike, the source gives them in different places.

Series [1] in a line: Solubilities of weakly basic drugs in organic acid buffers.
The nature of series [2]: physchem.
The nature of series [3]: pH-dependent solubility. It counts as physicochemical. The text has this:
Although carvedilol's solubility is similarly pH-dependent and varying, it is not obvious from FIG. 1 as it rapidly undergoes in situ salt formation with the buffering agent such as citric, acetic, and hydrochloric acids and consequently, the observed solubility is that of the salt formed in-situ.

A short description of series [4]: PK modeling (WinNonlin 1-compartment fit, Stella simulation) of 8 mg ondansetron hydrochloride IR tablet plasma data. The method, then:
In order to assess the type of in vitro release profile needed to achieve a once-daily plasma concentration profile, a modeling exercise was performed using the pharmacokinetic parameters for ondansetron hydrochloride reported in “Ondansetron Absorption in Adults: Effect of Dosage Form, Food, and Antacids” in Journal of Pharmaceutical Sciences Vol. (1994) by Bozigian et al. Mean plasma concentrations achieved in 24 healthy, adult male volunteers, who received a single 8 mg ondansetron hydrochloride IR tablet in the fasted state, were used using the software program, WinNonlin™ Standard Version 2.1 to fit a 1-compartment first order model with a lag-time assuming first order elimination kinetics.
The primary parameters were then input into another software, Stella Version 6.01 using a previously established model with slight modifications. Different in vitro release profiles were generated, and from target once-daily release profiles, desired in vitro release (medium, target and fast) profiles were generated by deconvolution.

For series [5] the following is noted: in vivo; cited from earlier work.
[6] abbreviates: single 8 mg IR tablet, fasted, 1-compartment model fit.
Setting [7] is: single 8 mg IR tablet, fasted, secondary parameter.

In the case of `O=C1CN=C(c2ccccc2Cl)c2cc([N+](=O)[O-])ccc2N1` [Clonazepam], the “solubility enhancement by organic acid” value in series [1] (Group C actives) is recorded as “less than 3 fold”. In addition, the solubility in series [1] (pH 2.3, aqueous buffer, solubility, fumaric acid buffer at pH 2.3 (higher acid concentration)) is about 11.6 µg/mL (≈ 36.7 µM); in series [1] (pH 3.2, aqueous buffer, Solubility (mg/mL) of Clonazepam in Fumaric Acid, pH of buffer 3.2), 9.6 µg/mL (≈ 30.4 µM); in series [1] (pH 3.7, aqueous buffer, Solubility (mg/mL) of Clonazepam in Fumaric Acid, pH of buffer 3.7) it was 9.8 µg/mL (≈ 31 µM); in series [1] (pH 4.8, aqueous buffer, Solubility (mg/mL) of Clonazepam in Fumaric Acid, pH of buffer 4.8) it was 9.5 µg/mL (≈ 30.1 µM); in series [1] (pH 5.5, aqueous buffer, Solubility (mg/mL) of Clonazepam in Fumaric Acid, pH of buffer 5.5), 9.3 µg/mL (≈ 29.5 µM); in series [1] (pH 6.2, aqueous buffer, Solubility (mg/mL) of Clonazepam in Fumaric Acid, pH of buffer 6.2), 7.2 µg/mL (≈ 22.8 µM). In addition, the solubility in series [1] (pH 6.8, aqueous buffer, Solubility (mg/mL) of Clonazepam in Fumaric Acid, pH of buffer 6.8) was 6.9 µg/mL (≈ 21.9 µM); in series [1] (pH 6.8, aqueous buffer, solubility, fumaric acid buffer at pH 6.8 (lower acid concentration)) it was about 6.9 µg/mL (≈ 21.9 µM). For the same compound, the “Solubility (mg/mL) of Clonazepam in Fumaric Acid” value in series [1] (pH of buffer 2.3) is given as 0.0116 mg/mL; in series [1] (pH of buffer 2.8), 0.0103 mg/mL.

For the compound `Nc1nnc(-c2cccc(Cl)c2Cl)c(N)n1` [Lamotrigine], the solubility was determined as 4480 µg/mL (≈ 17500 µM) in series [2] (pH 2.43, aqueous buffer); 1770 µg/mL (≈ 6910 µM) in series [2] (pH 3.33, aqueous buffer); 1610 µg/mL (≈ 6290 µM) in series [2] (pH 4.36, aqueous buffer); 488 µg/mL (≈ 1910 µM) in series [2] (pH 4.97, aqueous buffer); 226 µg/mL (≈ 882 µM) in series [2] (pH 5.66, aqueous buffer); 197 µg/mL (≈ 769 µM) in series [2] (pH 5.85, aqueous buffer). In series [2] (pH 6.5, aqueous buffer), this compound yielded a solubility of 161 µg/mL (≈ 629 µM).

`COc1ccccc1OCCNCC(O)COc1cccc2[nH]c3ccccc3c12` (racemic) [Carvedilol]: the “Solubility (mg/mL) of Carvedilol in Tartaric Acid” value (“Solubility (mg/mL) of Carvedilol” below) (pH 2.12) is 2.51 mg/mL; the “Solubility (mg/mL) of Carvedilol” value (pH 2.28) amounted to 1.36 mg/mL; the “Solubility (mg/mL) of Carvedilol” value (pH 3.64) amounted to 0.121 mg/mL; the “Solubility (mg/mL) of Carvedilol” value (pH 5.46) worked out at 0.105 mg/mL; the “Solubility (mg/mL) of Carvedilol” value (pH 5.9) was 0.028 mg/mL.

Take `OCCN(CCO)c1nc(N2CCCCC2)c2nc(N(CCO)CCO)nc(N3CCCCC3)c2n1` [Dipyridamole]: the solubility in series [3] (aqueous buffer, at pH 6.8) is 30 µg/mL (≈ 59.4 µM); in series [3] (simulated gastric fluid, in 0.1N HCl), about 1000 µg/mL (≈ 1980 µM); in series [2] (pH 2.98, aqueous buffer), 6240 µg/mL (≈ 12400 µM); in series [2] (pH 3.42, aqueous buffer) it was 1800 µg/mL (≈ 3570 µM); in series [2] (pH 3.68, aqueous buffer) it was 930 µg/mL (≈ 1840 µM); in series [2] (pH 3.88, aqueous buffer), 650 µg/mL (≈ 1290 µM). Further, the solubility in series [2] (pH 4.33, aqueous buffer) was 270 µg/mL (≈ 535 µM); in series [2] (pH 4.71, aqueous buffer) it was 130 µg/mL (≈ 258 µM); in series [2] (pH 6.28, aqueous buffer), 6 µg/mL (≈ 11.9 µM).

In the case of `Cc1nccn1CC1CCc2c(c3ccccc3n2C)C1=O.Cl.O.O` (racemic) [Ondansetron Hydrochloride, (±) 1,2,3,9-tetrahydro-9-methyl-3-[(2-methyl-1H-imidazole-1-yl)methyl]-4H-carbazol-4-one monohydrochloride dihydrate], the solubility is about 50 µg/mL in series [3] (aqueous buffer, at pH 6.8); 26900 µg/mL in series [1] (pH 2.01, aqueous buffer, Solubility of Ondansetron Hydrochloride, fumaric acid 5 mg/mL, start pH 2.13, end pH 2.01); 27000 µg/mL in series [1] (pH 2.14, aqueous buffer, Solubility of Ondansetron Hydrochloride, fumaric acid 2.5 mg/mL, start pH 2.26, end pH 2.14); 26100 µg/mL in series [1] (pH 2.4, aqueous buffer, Solubility of Ondansetron Hydrochloride, fumaric acid 1 mg/mL, start pH 2.48, end pH 2.40); 26200 µg/mL in series [1] (pH 2.75, aqueous buffer, Solubility of Ondansetron Hydrochloride, fumaric acid 0.25 mg/mL, start pH 2.79, end pH 2.75); 26000 µg/mL in series [1] (pH 3.49, aqueous buffer, Solubility of Ondansetron Hydrochloride, fumaric acid 0.05 mg/mL, start pH 3.19, end pH 3.49). Besides, the solubility in series [1] (pH 3.49, aqueous buffer, solubility, buffer containing only 0.05 mg/mL of fumaric acid, unchanged up to 5 mg/mL) is about 26000 µg/mL; in series [1] (pH 4.05, aqueous buffer, Solubility of Ondansetron Hydrochloride, fumaric acid 0.01 mg/mL, start pH 3.64, end pH 4.05), 26100 µg/mL; in series [1] (pH 4.33, aqueous buffer, Solubility of Ondansetron Hydrochloride, fumaric acid 0.0025 mg/mL, start pH 4.15, end pH 4.33), 26100 µg/mL. In series [3] (optimal highest dose 16 or 24 mg, pH 6.8), the “ratio of optimal highest dose (mg) to the solubility (mg/mL) at pH 6.8” value is given as 320. Further, in series [4] (male, human, plasma), the t1/2 was 3.65 h. The Vd in series [4] (single 8 mg IR tablet, fasted, 24 healthy adult male volunteers, 1-compartment first order model fit) is given as 238.26. For the same compound, in series [4] (setting [6]), the Ka was 1.49 per hour. Also, the Ke in series [4] (setting [6]) is reported as 0.19 per hr. Also, in series [4] (setting [6]), the Tlag was 0.41 h. In addition, the AUC in series [4] (setting [7]) was 170 ng·h/mL. In series [4] (setting [7]), this compound registered a Cl of 46.06 L/h. In series [4] (setting [7]), this compound displayed a Cm of 0.0248 mg/L. In addition, the Tmax in series [4] (setting [7]) is 1.98 h. Further, in series [5], the elimination half-life result is listed as “approximately 3.8±1 hrs”.
